# Test results taken from US6641802B2, “Amino acid compounds and photoprotecting compositions comprised thereof” (Societe L'Oreal S.A., priority 2000, dated 2003).
# Assays:
# [1] = UV absorption spectrum of the compound as a 5% dispersion in liquid petrolatum (total transmission and reflection, spectrophotometer with integrating sphere); type: physicochemical; conditions: 60 μm film
# Method: The UV absorption spectrum of the compound was measured as a 5% dispersion in liquid petrolatum. The total transmission and reflection of the dispersion was determined on a 60 μm film with a spectrophotometer equipped with an integrating sphere.
# The UV absorption spectrum of the compound was measured as a 5% dispersion in liquid petrolatum. The total transmission and reflection of the dispersion was determined on a 60 μm film with a spectrophotometer equipped with an integrating sphere (8 trials).
melting point,absorption maximum [1],shoulder (first shoulder) [1],optical density at 310 nm [1],SMILES
> 260 °C,260 nm,305 nm,0.8,"N[C@@H](CCCCNC(=O)C=Cc1ccccc1)C(=O)O [Example 1, N^ε-cinnamoyl-L-lysine]"
> 260 °C,300 nm,320 nm,0.4,COc1ccc(C=CC(=O)NCCCCC(N)C(=O)O)cc1 (centres unmarked) [Example 2]
